The numbers were not newly measured in US20160271085A1 (priority 2015, published 2016), which cites them from elsewhere.

Structures are written as SMILES.

Series [1] relates to amyotrophic lateral sclerosis. The note with it: ALS.
The next series concerns injured sciatic nerves. The note with it: addition of lactate; response did not occur in an atmosphere of nitrogen.
The conditions of series [2]: oral, ingested.

For the compound `Nc1nc2ccc(OC(F)(F)F)cc2s1` [Riluzole], the “progress of the disease” value in series [1] is recorded as “appears to slow the progress of the disease”.

As to `CC(O)C(=O)O` (stereo not drawn) [lactate], the sustained muscle contraction result in the series on injured sciatic nerves is recorded as “enhanced”. `CC(O)C(=O)[O-].[Na+]` (stereo not drawn) [sodium lactate, Sodium lactate]: the serum lactate levels entry in series [2] was “significantly elevate serum lactate levels”.
